According to patent publication US20100221719A1, “Probes for detecting protein nuclear transport and method for detecting and quantifying protein nuclear transport using the same” (priority 2004, published 2010):
Values belong to the molecule of their own block, whether it stands above or below them.

Tests used:
[1] = biological target: T1, glucocorticoid receptor (GR) (Homo sapiens, UniProt P04150); assay: Quantification of GR translocation into the nucleus (reconstituted RLuc luminescence, NIH3T3 cells); type: cell-based
T1 construct: DnaE-C (C-terminal splicing domain of DnaE intein) (N); expressed in transfected cells; host or cells: NIH3T3
T1 sequence (P04150 1-777): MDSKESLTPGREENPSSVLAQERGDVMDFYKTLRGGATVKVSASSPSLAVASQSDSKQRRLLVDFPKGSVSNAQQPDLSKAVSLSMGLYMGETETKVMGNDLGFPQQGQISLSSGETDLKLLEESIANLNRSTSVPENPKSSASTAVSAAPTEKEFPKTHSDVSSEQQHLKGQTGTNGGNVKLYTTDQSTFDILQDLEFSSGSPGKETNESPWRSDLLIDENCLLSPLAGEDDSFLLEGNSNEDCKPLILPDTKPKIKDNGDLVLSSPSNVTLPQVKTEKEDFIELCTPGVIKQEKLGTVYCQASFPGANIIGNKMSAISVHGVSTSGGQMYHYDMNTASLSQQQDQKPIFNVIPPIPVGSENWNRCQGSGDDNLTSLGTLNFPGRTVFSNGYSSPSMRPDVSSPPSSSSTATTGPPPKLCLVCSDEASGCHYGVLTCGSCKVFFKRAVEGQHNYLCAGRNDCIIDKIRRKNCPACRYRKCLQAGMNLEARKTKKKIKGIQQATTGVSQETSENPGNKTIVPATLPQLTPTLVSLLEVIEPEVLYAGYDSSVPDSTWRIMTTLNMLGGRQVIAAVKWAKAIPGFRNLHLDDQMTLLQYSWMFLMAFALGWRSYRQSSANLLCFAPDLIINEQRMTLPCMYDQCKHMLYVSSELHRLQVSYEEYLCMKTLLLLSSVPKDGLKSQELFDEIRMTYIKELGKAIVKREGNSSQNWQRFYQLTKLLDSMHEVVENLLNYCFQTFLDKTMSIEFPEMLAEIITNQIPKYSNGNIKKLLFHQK
Description: NIH3T3 cells were cotransfected with pcRDn-NLS and pcDRc-GR, and different concentrations of corticosterone were added to each microtiter well. The cells were harvested, and their lysates were mixed with a coelenterazine solution.

[2] = test system: Sterol Regulatory Element-Binding Proten-2 (SREBP-2); assay: Confirmation of SREBP-2 localization in COS-7 cells transfected with pcDRc-SREBP; type: cell-based; settings: in the presence of cholesterol, FIG. 18
Excerpt: Plasmid pcDRc-AR in Examples 1 to 6 was cleaved with restriction endonucleases NotI and XhoI to remove the cDNA encoding AR, and a cDNA encoding SREBP-2 was inserted at NotI and XhoI sites thereby constructing pcDRc-SREBP (FIG. 17).

[3] = test system: Sterol Regulatory Element-Binding Proten-2 (SREBP-2); assay: Quantification of SREBP-2 translocation into the nucleus (reconstituted RLuc luminescence, COS-7 cells); type: cell-based; settings: different concentrations of cholesterol, FIG. 19
Description: Translocation of SERPB-2 into the nucleus was qualified in the same manner as in Example 7. COS-7 cells were cotransfected with pcRDn-NLS and pcDRc-SREBP, and different concentrations of cholesterol were added to each microtiter well. The cells were harvested, and their lysates were mixed with a coelenterazine solution.

androgen receptor (AR) [4] = biological target: T2, androgen receptor (AR) (Homo sapiens, UniProt P10275); assay: In vivo imaging of AR nuclear import in mouse brain with implanted cotransfected COS-7 cells; settings: inhibitor 10 mg/kg i.p. plus DHT, average from three mice
T2 construct: DnaE-C (C-terminal splicing domain of DnaE intein) (N); expressed in transfected cells; host or cells: COS-7
T2 sequence (P10275 1-920): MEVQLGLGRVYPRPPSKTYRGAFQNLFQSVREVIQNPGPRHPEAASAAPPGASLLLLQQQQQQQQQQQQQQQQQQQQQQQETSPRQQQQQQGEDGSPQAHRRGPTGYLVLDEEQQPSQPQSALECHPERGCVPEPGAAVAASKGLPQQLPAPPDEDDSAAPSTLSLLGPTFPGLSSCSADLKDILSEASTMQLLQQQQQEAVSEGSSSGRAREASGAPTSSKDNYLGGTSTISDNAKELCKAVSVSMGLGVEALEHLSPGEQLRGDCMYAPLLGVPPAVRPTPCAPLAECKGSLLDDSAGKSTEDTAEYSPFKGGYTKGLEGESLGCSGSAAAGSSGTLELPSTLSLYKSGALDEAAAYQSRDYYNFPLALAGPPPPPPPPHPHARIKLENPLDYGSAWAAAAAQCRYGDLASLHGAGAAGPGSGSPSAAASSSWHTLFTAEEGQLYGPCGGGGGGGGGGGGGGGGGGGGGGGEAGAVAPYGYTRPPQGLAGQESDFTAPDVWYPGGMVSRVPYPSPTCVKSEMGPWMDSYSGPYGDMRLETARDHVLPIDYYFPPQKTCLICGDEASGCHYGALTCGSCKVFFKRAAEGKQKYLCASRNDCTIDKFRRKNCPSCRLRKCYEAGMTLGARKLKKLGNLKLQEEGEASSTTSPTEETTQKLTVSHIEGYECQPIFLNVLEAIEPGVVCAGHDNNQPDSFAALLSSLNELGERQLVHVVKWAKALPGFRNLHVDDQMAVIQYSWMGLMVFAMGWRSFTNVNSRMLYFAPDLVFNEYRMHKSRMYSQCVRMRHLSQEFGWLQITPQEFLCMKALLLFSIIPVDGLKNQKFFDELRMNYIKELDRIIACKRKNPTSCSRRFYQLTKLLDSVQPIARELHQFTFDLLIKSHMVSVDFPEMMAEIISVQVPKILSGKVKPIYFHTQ
Description: Two hours after injection, 10 μl of coelenterazine (0.14 mg/kg of body weight) was injected intracerebrally in the mice, and representatives from each mouse group (n=3) were imaged in 2-min intervals.

androgen receptor (AR) [5] = biological target: T2, androgen receptor (AR); assay: Cell-based in vitro assay of AR translocation into the nucleus (reconstituted RLuc luminescence, COS-7 cells)
Description: COS-7 cells were cotransfected with the plasmids and incubated for 12 h. The medium was replaced with DMEM supplemented with 10% FBS, and 24 h after the replacement, steroid hormones or synthetic chemicals were added to each well.
After the COS-7 cells were extensively incubated for 2 hours, the cells were harvested, and luciferase activity was evaluated by using the Renilla luciferase assay kit (Promega) with a luminometer (Minilumat LB9506; Berthold, GmbH) with an integration time of 20 sec.
The cells were harvested, and their lysates were mixed with a coelenterazine solution.

[6] = biological target: T1, glucocorticoid receptor (GR); assay: Confirmation of GR localization in NIH3T3 cells transfected with pcDRc-GR; type: cell-based; settings: addition of corticosterone, FIG. 14
Description: Plasmid pcDRc-AR in Examples 1 to 6 was cleaved with restriction endonucleases NotI and XhoI to remove the cDNA encoding AR, and a cDNA encoding glucocorticoid receptor (GR) was inserted at NotI and XhoI sites (FIG. 13). The same experiment as in case of AR was performed using the thus-constructed plasmid.

[7] = test system: Signal Transducer and Activator of Transcription 3 (STAT-3); assay: Quantification of STAT-3 translocation into the nucleus (reconstituted RLuc luminescence, HEK293 cells); type: cell-based; settings: different concentrations of OSM
Description: HEK293 cells were cotransfected with pcRDn-NLS and pcDRc-STAT3, and different concentrations of OSM were added to each microtiter well. The cells were harvested, and their lysates were mixed with a coelenterazine solution.

[8] = test system: Signal Transducer and Activator of Transcription 3 (STAT-3); assay: Confirmation of STAT-3 localization in HEK293 cells transfected with pcDRc-STAT3; type: cell-based; settings: addition of OSM, FIG. 21
Excerpt: Plasmid pcDRc-AR in Examples 1 to 6 was cleaved with restriction endonucleases NotI and XhoI to remove the cDNA encoding AR, and a cDNA encoding STAT-3 was inserted at NotI and XhoI sites thereby constructing pcDRc-STAT-3 (FIG. 20).

Molecule: C[C@]12CCC(=O)C=C1CC[C@@H]1[C@@H]2[C@@H](O)C[C@@]2(C)[C@H]1CC[C@]2(O)C(=O)CO [cortisol]
- induction of GR translocation into the nucleus ([1]; FIG. 15): induce the GR translocation into the nucleus

Molecule: CC(C)CCC[C@@H](C)[C@H]1CC[C@H]2[C@@H]3CC=C4C[C@@H](O)CC[C@]4(C)[C@H]3CC[C@]12C [cholesterol]
- localization of the probe with SREBP-2 [2]: predominantly in cytoplasmic
- luminescence signals of reconstituted RLuc (dose-response) [3]: increased with decreasing the concentration of cholesterol

Molecule: CC12CC1(C)C(=O)N(c1cc(Cl)cc(Cl)c1)C2=O (stereo not shown) [procymidone]
- luminescence intensity on stimulation with DHT together with inhibitor (androgen receptor (AR) [4]): decrease in luminescence intensity
- inhibition of DHT-induced luminescence / nuclear translocation of AR (androgen receptor (AR) [5]; in the presence of DHT, FIG. 5c): inhibit the DHT-induced strong luminescence
- increase in observed luminescence intensity (AR translocation, compound alone) (androgen receptor (AR) [5]; over the concentration range tested, FIG. 5b): did not induce any increase

- localization of Probe I (GR) [6]: nuclear localization of Probe I
Molecule: C[C@]12C[C@H](O)[C@H]3[C@@H](CCC4=CC(=O)CC[C@@]43C)[C@@H]1CC[C@@H]2C(=O)CO [corticosterone]
- luminescence signals of reconstituted RLuc (dose-response) ([1]; different concentrations of corticosterone): increased with increasing the concentration of corticosterone

B1: oncostatin M (protein, UniProt P13725 26-221, looked up)
Oncostatin-M: AAIGSCSKEYRVLLGQLQKQTDLMQDTSRLLDPYIRIQGLDVPKLREHCRERPGAFPSEETLRGLGRRGFLQTLNATLGCVLHRLADLEQRLPKAQDLERSGLNIEDLEKLQMARPNILGLRNNIYCMAQLLDNSDTAEPTKAGRGASQPPTPTPASDAFQRKLEGCRFLHGYHRFMHSVGRVFSKWGESPNRSRR
notes: oncostatin M (OSM), a ligand
- luminescence signals of reconstituted RLuc (dose-response) [7]: increased with decreasing the concentration of cOSM
- localization of the probe with STAT3 [8]: nuclear localization of the probe
